Reference: US8088806B2 (Achillion Pharmaceuticals, Inc., priority 2005, dated 2012)

What follows are compounds tested on HCV replicon (assay: Replicon based assay of HCV replication inhibition (NPT ELISA)). Conditions: Hepatitis C virus, Huh-7, 72 h, Table I; Huh-7 HCV replicon-containing cells, three days; read-out: Activity.
Format: cell-based, Hepatitis C virus
In short: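 NPT (neomycin phosphotransferase) content, proportional to replicon replication, quantified by capture ELISA on day four. Before that, replicon-bearing Huh-7 cells in G418-free screening medium were exposed three days at 37° C to compound, typically six doses from 10 to 0.03 micromolar, with equal DMSO across wells.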

`Fc1cccc(-c2csc(Nc3cccc(OCc4ccccc4)c3)n2)c1` [compound 193, N-(3-(benzyloxy)phenyl)-4-(3-fluorophenyl)thiazol-2-amine] and `Fc1cc(Nc2nc(-c3cccnc3)cs2)ccc1N1CCC(c2ccccc2)CC1` [compound 72, N-(3-fluoro-4-(4-phenylpiperidin-1-yl)phenyl)-4-(pyridin-3-yl)thiazol-2-amine] cannot be ordered by EC50: under 1000 nM for the first, under 1000 nM for the second.

Going from `CCOC(=O)Cc1csc(Nc2nc(-c3ccc(Cl)cc3)cs2)n1` [compound 147, ethyl 2-(2-(4-(4-chlorophenyl)thiazol-2-ylamino)thiazol-4-yl)acetate] to `CCCCCOc1ccc(Nc2nc(-c3ccc(Cl)cc3)cs2)cc1` [compound 26, 4-(4-chlorophenyl)-N-(4-(pentyloxy)phenyl)thiazol-2-amine], the EC50 falls from over 10000 nM to under 1000 nM.

First: CCCCCOc1ccc(Nc2nc(-c3ccc(Cl)c(Cl)c3)cs2)cn1 [compound 64, N-(4-(3,4-dichlorophenyl)thiazol-2-yl)-6-(pentyloxy)pyridin-3-amine]
Second: CCCCCOc1ccc(Nc2nc(-c3ccc(C(=O)N(C)C)cn3)cs2)cc1C(F)(F)F [compound 215, 6-(2-(3-(trifluoromethyl)-4-(pentyloxy)phenylamino)thiazol-4-yl)-N,N-dimethylpyridine-3-carboxamide]
The EC50 of the first is higher: over 10000 nM for the first, under 1000 nM for the second.

Same assay, conditions: Hepatitis C virus, Huh-7, 72 h, Table III; Huh-7 HCV replicon-containing cells, three days; read-out: Activity

`CCCCCCCCOc1ccc(Nc2nc(-c3cnccn3)cs2)cc1` [compound 598, N-(4-(octyloxy)phenyl)-4-(pyrazin-2-yl)thiazol-2-amine] and `CCCCCCCCOc1ccc(Nc2nc(-c3ccc4ncccc4n3)cs2)cc1C(F)(F)F` [compound 701, 4-(6-deuterated-1,5-naphthyndin-2-yl)-N-(4-(octyloxy)-3-(trifluoromethyl)phenyl)thiazol-2-amine] cannot be ordered by EC50: under 1000 nM for the first, under 1000 nM for the second.

`CCCCCCCCN(C)c1ccc(Nc2nc(-c3ccc(O)c(C(N)=O)c3)cs2)cc1C(F)(F)F` [compound 569, 5-(2-(4-(N-methyl-N-octylamino)-3-(trifluoromethyl)phenylamino)thiazol-4-yl)-2-hydroxybenzamide] and `CCCCCCCCN(C)c1ccc(Nc2nc(-c3ccc4[nH]c(=O)oc4c3)cs2)cc1C(F)(F)F` [compound 573, 6-(2-(4-(N-methyl-N-octylamino)-3-(tnfluoromethyl)phenylamino)azol-4-yl)benzo[d]oxazol-2(3H)-one] cannot be ordered by EC50: under 1000 nM for the first, under 1000 nM for the second.

`CCCCCOc1ccc(Nc2nc(-c3ccc[n+]([O-])c3)cs2)cc1C(F)(F)F` [compound 521] and `CCCCCCCCOc1ccc(Nc2nc(-c3ccc(NC)nc3)cs2)cc1C(F)(F)F` [compound 536, 5-(2-(3-(trifluoromethyl)-4-(octyloxy)phenylamino)thiazol-4-yl)-N-methylpyridin-2-amine] cannot be ordered by EC50: under 1000 nM for the first, under 1000 nM for the second.

`CCCCCCCCOc1ccc(Nc2nc(-c3ncccc3O)cs2)cc1C(F)(F)F` [compound 710, 2-(2-(3-(trifluoromethyl)-4-(octyloxy)phenylamino)thiazol-4-yl)pyridin-3-ol] and `CCCCCCCCOc1ccc(Nc2nc(-c3ccc4oc(CO)cc4c3)cs2)cc1C(F)(F)F` [compound 704, (5-(2-(3-(trifluoromethyl)-4-(octyloxy)phenylamino)thiazol-4-yl)benzofuran-2-yl)methanol] cannot be ordered by EC50: under 1000 nM for the first, under 1000 nM for the second.

Compared with `CCCCCCCCc1ccc(Nc2nc(-c3cc4ccccc4o3)cs2)cc1` [compound 553, 4-(benzofuran-2-yl)-N-(4-octylphenyl)thiazol-2-amine], `CCCCCCCCc1ccc(Nc2nc(-c3ccc4c(c3)NC(=O)CO4)cs2)cc1` [compound 548, 6-(2-(4-octylphenylamino)thiazol-4-yl)-2H-benzo[b][1,4]oxazin-3(4H)-one] is lower in EC50: 1000 to 10000 nM for the first, under 1000 nM for the second.

First: CCCCCCCCc1ccc(Nc2nc(-c3ccc(OCC(=O)O)cc3)c(C)s2)cc1 [compound 550, 2-(4-(2-(4-octylphenylamino)-5-methylthiazol-4-yl)phenoxy)acetic acid]
Second: CCCCCOc1ccc(Nc2nc(Cc3ccc(OC)cc3)cs2)cc1F [compound 642, 4-(4-methoxybenzyl)-N-(3-fluoro-4-(pentyloxy)phenyl)thiazol-2-amine]
The EC50 of the first is lower: under 1000 nM for the first, over 10000 nM for the second.

Same assay, conditions: Hepatitis C virus, replicon based assay of HCV replication inhibition; Table II; read-out: Activity

Compared with `CCCCCCCCOc1ccc(Nc2nc(CN3C(C)CCCC3C)cs2)cc1` (stereo not shown) [compound 326, 4-((2,6-dimethylpiperidin-1-yl)methyl)-N-(4-(octyloxy)phenyl)thiazol-2-amine], `CCCCCCCOc1ccc(Nc2nc(CC)cs2)cc1` [compound 403, 4-ethyl-N-(4-(heptyloxy)phenyl)thiazol-2-amine] is lower in EC50: 1000 to 10000 nM for the first, under 1000 nM for the second.

First: O=C1COc2ccc(-c3csc(Nc4ccc(OCC5CC5)c(C(F)(F)F)c4)n3)cc2N1 [compound 253, 6-(2-(4-(cyclopropylmethoxy)-3-(trifluoromthyl)phenyl-amino)thiazol-4-yl)-2H-benzo[b][1,4]oxazin-3(4H)-one]
Second: Fc1cc(Nc2nc(-c3cncnc3)cs2)ccc1OCC1CCCCC1 [compound 506, N-(4-(cyclohexylmethoxy)-3-fluorophenyl)-4-(pyrimidin-5-yl)thiazol-2-amine]
The EC50 of the first is higher: 1000 to 10000 nM for the first, under 1000 nM for the second.

`CCCCCOc1ccc(Nc2nc(CN3CCCC(C(=O)N(CC)CC)C3)cs2)cc1F` (stereo not shown) [compound 284, N,N-diethyl-1-((2-(3-fluoro-4-(pentyloxy)phenylamino)thia-zol-4-yl)methyl)piperidine-3-carboxamide] and `CCCCCOc1ccc(Nc2nc(CN3CCOCC3)cs2)cc1F` [compound 285, N-(3-fluoro-4-(pentyloxy)phenyl)-4-(morpholinomethyl)thiazol-2-amine] fall in the same range of EC50: 1000 to 10000 nM for the first, 1000 to 10000 nM for the second.

First: CCCCCOc1ccc(Nc2nc(-c3sc(-c4cnccn4)nc3C)cs2)cc1C(F)(F)F [compound 414, N-(3-(trifluoromethyl)-4-(pentyloxy)phenyl)-4-(4-methyl-2-(pyrazin-2-yl)thiazol-5-yl)thiazol-2-amine]
Second: CCCCCCCCN(C)c1ccc(Nc2nc(Cc3cccc(F)c3)cs2)cc1 [compound 499, N^1-(4-(3-fluorobenzyl)thiazol-2-yl)-N^4-methyl-N^4-octylbenzene-1,4-diamine]
The EC50 of the first is lower: under 1000 nM for the first, 1000 to 10000 nM for the second. The first is the more potent here.

`CCCCCCCOc1ccc(Nc2nc(-c3ccc(OC)cc3)c(-c3ccc(OC)cc3)s2)cc1` [compound 355, N-(4-(heptyloxy)phenyl)-4,5-bis(4-methoxyphenyl)thiazol-2-amine] was tested, and the EC50 was over 10000 nM.

Same assay, conditions: Hepatitis C virus, replicon based assay of HCV replication inhibition; Table IV; read-out: Activity

`Cc1sc(Nc2ccc(OCCCCc3cccs3)c(F)c2)nc1-c1cccnc1` [compound 854, N-(4-(4-(thiophen-2-yl)butoxy)-3-fluorophenyl)-5-methyl-4-(pyridin-3-yl)thiazol-2-amine] and `CCCCCCCN(C)Cc1ccc(Nc2nc(-c3cccnc3)c(C)s2)cc1C(F)(F)F` [compound 863] fall in the same range of EC50: 1000 to 10000 nM for the first, 1000 to 10000 nM for the second.

`CCCCCCCCOc1ccc(Nc2nc(-c3cnc(O)nc3)cs2)cc1C(F)(F)F` [compound 840, 5-(2-(3-(trifluoromethyl)-4-(octyloxy)phenylamino)thiazol-4-yl)pyrimidin-2-ol] and `CCCCCCC#Cc1ccc(Nc2nc(-c3cnc(OC)nc3)cs2)cc1C(F)(F)F` [compound 780, N-(3-(trifluoromethyl)-4-(oct-1-ynyl)phenyl)-4-(2-methoxypyrimidin-5-yl)thiazol-2-amine] cannot be ordered by EC50: under 1000 nM for the first, under 1000 nM for the second.

`CCOC(=O)c1csc(-c2csc(Nc3ccc(OCC4CCCCC4)c(C(F)(F)F)c3)n2)n1` [compound 769, ethyl 2-(2-(4-(cyclohexylmethoxy)-3-(trifluoromethyl)phenylamino)thiazole-4-yl)thiazole-4-carboxylate] and `OCc1cc2cc(-c3csc(Nc4ccc(OCC5CCCCC5)c(C(F)(F)F)c4)n3)ccc2o1` [compound 765, (5-(2-(4-(cyclohexylmethoxy)-3-(trifluoromethyl)phenylamino)thiazol-4-yl)benzofuran-2-yl)methanol] cannot be ordered by EC50: under 1000 nM for the first, under 1000 nM for the second.

Compared with `c1cncc(-c2csc(Nc3ccc4[nH]ncc4c3)n2)c1` [compound 755, N-(4-(pyridin-3-yl)thiazol-2-yl)-1H-indazol-5-amine], `N#Cc1ccc(Nc2nc(-c3cccnc3)cs2)cc1` [compound 880, 4-(4-(pyridin-3-yl)thiazol-2-ylamino)benzonitrile] is lower in EC50: over 10000 nM for the first, 1000 to 10000 nM for the second.

First: N#Cc1ccc(Nc2nc(-c3cccnc3)cs2)cc1C(F)(F)F [compound 882, 4-(4-(pyridin-3-yl)thiazol-2-ylamino)-2-(trifluoromethyl)benzonitrile]
Second: CCCCCCC=Cc1ccc(Nc2nc(-c3cccnc3)cs2)cc1C(F)(F)F [compound 822, N-(3-(trifluoromethyl)-4-(oct-1-enyl)phenyl)-4-(pyridin-3-yl)thiazol-2-amine]
The EC50 of the first is higher: over 10000 nM for the first, under 1000 nM for the second.

First: O=C(O)Cc1ccc(Nc2nc(-c3cccnc3)cs2)cc1 [compound 909, 2-(4-(4-(pyridin-3-yl)thiazol-2-ylamino)phenyl)acetic acid]
Second: CCC(C)c1ccc(Nc2nc(-c3cccnc3)cs2)cc1 (stereo not shown) [compound 872, N-(4-sec-butylphenyl)-4-(pyridin-3-yl)thiazol-2-amine]
The EC50 of the first is higher: over 10000 nM for the first, 1000 to 10000 nM for the second. The second is the more potent here.

`O=C(O)Cc1ccc(-c2csc(Nc3ccc(OCCCCc4ccccc4)c(C(F)(F)F)c3)n2)s1` [compound 927, 2-(5-(2-(4-(4-phenylbutoxy)-3-(trifluoromethyl)phenylamino)thiazol-4-yl)thiophen-2-yl)acetic acid] and `CCOC(=O)Cc1ccc(-c2csc(Nc3ccc(OCCCc4ccco4)c(C(F)(F)F)c3)n2)s1` [compound 944, ethyl 2-(5-(2-(4-(3-(furan-2-yl)propoxy)-3-(trifluoromethyl)phenylamino)thiazol-4-yl)thiophen-2-yl) acetate] cannot be ordered by EC50: under 1000 nM for the first, under 1000 nM for the second.

Compared with `CC(C)(C)OC(=O)Nc1ccc(Nc2nc(-c3cccnc3)cs2)cc1` [compound 895, tert-butyl 4-(4-(pyridin-3-yl)thiazol-2-ylamino)phenylcarbamate], `COc1cc(-c2ccccc2)c(C)cc1Nc1nc(-c2cccnc2)cs1` [compound 903] is lower in EC50: over 10000 nM for the first, under 1000 nM for the second.
